Columns and labels:
[1] = test system: Monosodium Iodoacetate Induced Osteoarthritis; assay: Monosodium iodoacetate (MIA) induced osteoarthritis; type: in vivo, Male Wistar rats
Source text: Male Wistar rats were acclimated to the testing facility for 5 days. The rats were individually housed in micro-isolator shoe-box polycarbonate cages with cob bedding and water bottles. Dry pelleted food of known composition and nutritional components was provided ad libitum Animals were randomized by treatment type using an online random number generator. Each treatment group was assigned a number, entered into the random number generator, recorded then translated back to the associated treatment. All injections were given in the left leg unless the treatment indicated “Contralateral” in which case the injection was given in the right leg. Both legs were shaved on all animals at the time of the treatment injections to blind the test administrator. The rats were weighed the day prior to injection with monosodium iodoacetate (MIA), the agent used to induce osteoarthritis in the animals. The day of injection, rats from groups 2-8 received a subcutaneous (SC) dose of buprenorphine at least one hour prior to induction. […] Naïve animals were then placed in recovery. All other animals received an injection of MIA. In animals receiving MIA, the hind leg was flexed and an injection of MIA (25 μL) was injected into the intra-articular space using a 27 gauge ½ inch needle. Standard postoperative care was performed (twice daily for 48 hours). On Day 8 the test article was administered as described above. On Days −1, 7, 14, 21, 28, and 35 post-induction, weight bearing was assessed. A weight bearing scale was utilized using a plexiglass chamber to assess the amount of weight distributed in each hind limb. The animals were acclimated to the chamber for at least 5 minutes prior to testing and the weight distribution was recorded 5 times. The animals were terminated at day 36. Both stifles were collected from each animal; the skin was removed from the joint and the patella was removed while leaving as much of the fat pad intact with the joint. The stifle was placed in the appropriate cassette with rolled gauze to secure the stifle in the cassette and then placed into 4% Paraformaldehyde. These samples were examined histologically.

[2] = test system: Reactivated Peptidoglycan-Polysaccharide Knee Arthritis; assay: Reactivated peptidoglycan-polysaccharide (PGPS) knee arthritis; type: in vivo, Male Lewis rats; details: for gait scores, second reactivation: intra-articular dose on day −7 (Triamcinolone 0.06 mg: day 15, 17, 18; test compound 1 mg: throughout second reactivation); for gait deficiency, second reactivation / gait scores and deficiency, first reactivation: intra-articular dose on day −7 (Triamcinolone 0.06 mg; test compound 1 mg); for gait deficiency, second reactivation: days 15, 17 and 18; for gait scores and deficiency, first reactivation: first reactivation (days 1-4)
Source text: Male Lewis rats were acclimated to the testing facility for 7 days. The rats were housed in 5 per cage in shoe-box polycarbonate cages with wire tops, wood chip bedding and suspended food and water bottles. On day −21, the male Lewis rats were randomized into treatment groups by body weight. The rats were anesthetized and injected with peptidoglycan-polysaccharide (PGPS) into the right knee to induce PGPS arthritis. Arthritis was reactivated on days 0 and 14 by an IV tail injection of PGPS. […] The rats were weighed at baseline on days 0, 4, 14 and 18. […] Gait analysis was performed by applying ink to the ventral surface of the foot and documenting weight bearing during movement across paper. The animals were terminated at day 18. Right knees were removed, trimmed of extraneous tissue, and collected into 10% neutral buffered formalin. After two days in the formalin buffer and three days in 10% formic acid decalcifier, the knees were cut into two approximately equal halves in the frontal plane and processed for paraffin embedding and stained with T. Blue. Histological examinations were subsequently performed for bone resorption, inflammation, pannus and cartilage damage. […] Gait scores were analyzed using a Kruskal-Wallis test (non-parametric ANOVA) with Dunn's multiple comparison post-test. Histopathology scores were analyzed using a Kruskal-Wallis test (non-parametric ANOVA) with Dunn's multiple comparison post-test.

[3] = Triamcinolone 0.06 mg intra-articular

SMILES: COc1ccc(COc2ccc(Cn3c(N)nc4cc(-c5cnn(C)c5)cnc43)cc2OC)cc1 [Ex. 3-15, 3-(3-Methoxy-4-((4-methoxybenzyl)oxy)benzyl)-6-(1-methyl-1H-pyrazol-4-yl)-3H-imidazo[4,5-b]pyridin-2-amine]
- efficacy (weight bearing) ([1]; 10 μg Contralateral injection): efficacy at 3 and 4 weeks following administration
- efficacy (weight bearing) ([1]; 10 μg Ipsilateral injection): efficacy was observed at 2 through 4 weeks following administration
- efficacy (weight bearing) ([1]; 30 μg Contralateral injection): efficacy at only the 3 week timepoint
- efficacy (weight bearing) ([1]; 30 μg Ipsilateral injection): effective throughout the four weeks following administration
- systemic pain relief (weight bearing) ([1]; 100 μg Contralateral injection, 1-4 weeks): did not show systemic pain relief at any timepoint
- efficacy (weight bearing) ([1]; 100 μg Ipsilateral injection): effective throughout the four weeks following administration
- MIA/LRS compared with treatment (p<0.05) ([1]; Ipsilateral 100 μg and 30 μg, day 35): MIA/LRS was significantly worse
- body weight results ([1]; intra-articular 10, 30, 100 μg on Day 8): No adverse observations
- Histopathology of the knee joint, adverse changes ([1]; stifles collected at day 36): no adverse changes
- AUC values of knee caliper measurements ([2]; 1 mg intra-articular): generally unaffected
- reduction of AUC values of gait scores and deficiency, first reactivation ([2]; 1 mg intra-articular): 92-93%
- reduction of AUC values of gait scores and deficiency, second reactivation ([2]; 1 mg intra-articular): 85-86%
- Knee caliper measurements ([2]; 1 mg intra-articular, day 14 (just prior to the second reactivation)): significantly reduced on day 14
- gait scores, second reactivation [2]: significantly reduced throughout the second reactivation
- gait deficiency, second reactivation [2]: reductions in deficiency were significant
- gait scores and deficiency, first reactivation [2]: significant reductions

SMILES: C[C@]12C=CC(=O)C=C1CC[C@H]1[C@@H]3C[C@@H](O)[C@](O)(C(=O)CO)[C@@]3(C)C[C@H](O)[C@@]12F [Triamcinolone, reference compound]
- reduction of AUC values of gait scores and deficiency, each reactivation calculated separately [2, 3]: 74-99%
- reduction of AUC values of gait scores and deficiency, summed [2, 3]: 88-92%
- reductions in the AUC of knee caliper measurements [2, 3]: 53-106%
- Knee caliper measurements ([2]; Triamcinolone 0.06 mg intra-articular, days 0, 2, 4, 16 and 18): significantly reduced
- gait scores, second reactivation [2]: significantly reduced
- gait deficiency, second reactivation [2]: significantly reduced
- gait scores and deficiency, first reactivation [2]: significantly reduced
